We go through eight compounds from patent US11851391B2, “Antifungal compounds and methods of forming the same” (University of Kentucky Research Foundation, priority 2018, dated 2023).

≈ marks a conversion by molar mass, not a printed value. Where two headings read alike, the source gives them in different places.

Format in all cases: cell-based
Data set [1] has as its system Aspergillus nidulans ATCC 38163 (strain L). The experiment in a line: MIC determination against filamentous fungi (CLSI M38-A2). The conditions noted are these: MIC-0, 48 h at 35° C. Put shortly: (§1)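 Broth microdilution followed CLSI M38-A2 in RPMI 1640 buffered to pH 7.0 with 0.165 M MOPS. Spores were harvested from PDA cultures, counted by hemocytometer and added at 5×10^5 CFU/mL final, then incubated 48 h at 35° C. MIC was taken as complete growth inhibition versus growth control (MIC-0), run in triplicate.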

For data set [2], the system named is Aspergillus terreus ATCC MYA-3633 (strain M). The description is as above. To be noted: MIC-0, 48 h at 35° C. Put shortly:
as §1

Data set [3] relates to Aspergillus flavus ATCC MYA-3631 (strain K). The description is as above. To be noted: MIC-0, 48 h at 35° C. Put shortly: as §1
The test system of data set [4] is Candida parapsilosis ATCC 22019 (strain J). The experiment in a line: MIC determination, in vitro antifungal assay (CLSI M27-A3). To be noted: strain J, MIC-0, 48 h at 35° C. Summed up:
(§2)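 MICs followed broth microdilution per CLSI M27-A3 with minor modifications, in RPMI 1640 buffered to pH 7.0 with MOPS at 35° C. Inoculum was 2-4×10^3 CFU/mL from overnight YPD cultures, with DMSO kept <1.25%. MIC was the lowest concentration giving complete inhibition (MIC-0).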

Data set [5] relates to Candida albicans ATCC 10231(R) (strain A). The description is as above. The conditions noted are these: MIC-0 (no visible growth), 48 h at 35° C. Put shortly: as §2
The subject of data set [6] is human lung carcinoma cell line A549. The data set is described as follows: In vitro cytotoxicity assay (resazurin). To be noted: 24 h. As for the experimental part: The human bronchus normal cell line BEAS-2B (ATCC CRL-9609) and the human lung carcinoma cell line A549 (ATCC CRL-185) were kind gifts from the laboratories of Dr. Matthew S. Gentry (University of Kentucky, Lexington, KY, USA) and Dr. David K. Orren (University of Kentucky, Lexington, KY, USA). The mammalian cells were grown in Dulbecco's Modified Eagle's Medium (DMEM) (from ATCC) with 10% fetal bovine serum (FBS) (from ATCC) and 1% Pen/Strep (from ATCC). Cell lines were cultured at 37° C. with 5% CO2 and passaged by trypsinization with 0.05% trypsin:0.53 mM EDTA (from ATCC). Cell confluency was determined by using a Nikon Eclipse TS100 microscope (Minato, Tokyo, Japan).
Cytotoxicity assays were performed as previously described with slight modifications. A549 and BEAS-2B cells were first thawed from stocks and grown. The confluent cells were transferred to a 96-well microtiter plates at density of 3000 cells/well. The 96-well plates were incubated at 37° C. with 5% CO2 overnight. […] The stock solutions were serially diluted in 1.5 mL eppendorf tubes to achieve concentrations of 31-0.12 mg/mL. 1 μL of these 1000× compound stock solutions was then added to 999 μL of DMEM medium in 1.5 mL eppendorf tubes to obtain final concentrations of 31-0.12 μg/mL. […] The 96-well plates were further incubated for 24 h at 37° C. with 5% CO2. To evaluate cell survival, each well was treated with 10 μL (25 mg/L) of resazurin sodium salt (Sigma-Aldrich, St. Louis, MO, USA) and incubated for another 6 h. Metabolically active cells can convert resazurin to the highly fluorescent dye, resorufin, and be detected at A560 excitation and A590 emission using a SpectraMax M5 plate reader (Molecular Devices, San Jose, CA, USA). […] The percentage survival rates were calculated by using the following formula: % cell survival=[(fluorescence of sample)−(fluorescence of background)]×100/[(fluorescence of negative control)−(fluorescence of background)]. Experiments were done in duplicate.

The mark [7] stands for this setting: Aspergillus nidulans, ATCC38163, 48 h, read-out: MIC.
[8] abbreviates: Aspergillus terreus, 48 h, read-out: MIC.
The mark [9] stands for this setting: Aspergillus flavus, 48 h, read-out: MIC.
The mark [10] stands for this setting: Lodderomyces parapsilosis, ATCC22019, 48 h, read-out: MIC.
[11] abbreviates: Candida albicans, ATCC10231, 48 h, read-out: MIC.
[12] abbreviates: A549 (printed A459) at 31 μg/mL.

What is called MIC is the smallest concentration in the dilution series that meets the test's criterion for growth inhibition. Turning to `COc1ccc(N/N=C/c2ccc(-c3ccc(/C=N/Nc4ccc(OC)cc4)cc3)cc2)cc1` [Compound 15b], the MIC in data set [1] (setting [7]) is 7.8 to 15.6 µg/mL (≈ 17.3 to 34.6 µM); in data set [1], 7.8 µg/mL (≈ 17.3 µM); in data set [2] (setting [8]), > 31.3 µg/mL; in data set [3] (setting [9]), > 31.3 µg/mL; in data set [4] (setting [10]) it was 7.8 to 15.6 µg/mL (≈ 17.3 to 34.6 µM); in data set [4], 15.6 µg/mL (≈ 34.6 µM). Besides, the results for the minimal inhibitory concentration (MIC) in data set [5] (setting [11]) and in data set [5] were 7.8 to 15.6 µg/mL (≈ 17.3 to 34.6 µM) and 7.8 µg/mL (≈ 17.3 µM), respectively. Also, the “toxicity (in words)” value in data set [6] (setting [12]) is given as “generally non-toxic”.

Regarding `COc1ccc(N/N=C/c2ccc(-c3cccc(/C=N/Nc4ccc(OC)cc4)c3)cc2)cc1` [Compound 15a], the minimal inhibitory concentration (MIC) in data set [1] (setting [7]) is 31.3 µg/mL (≈ 69.5 µM); in data set [2] (setting [8]), > 31.3 µg/mL; in data set [3] (setting [9]), > 31.3 µg/mL; in data set [4] (setting [10]), > 31.3 µg/mL; in data set [5] (setting [11]), 1.95 to 3.9 µg/mL (≈ 4.33 to 8.66 µM); in data set [5], 1.95 µg/mL (≈ 4.33 µM). In addition, the “toxicity (in words)” value in data set [6] (setting [12]) was “generally non-toxic”.

Take `C(=N\Nc1ccccc1)/c1ccc(-c2cccc(/C=N/Nc3ccccc3)c2)cc1` [Compound 7a]: the MIC was 1.95 to 3.9 µg/mL (≈ 4.99 to 9.99 µM) in data set [1] (setting [7]); 1.95 µg/mL (≈ 4.99 µM) in data set [1]; 7.8 to 15.6 µg/mL (≈ 20 to 39.9 µM) in data set [2] (setting [8]); 15.6 µg/mL (≈ 39.9 µM) in data set [2]; 1.95 to 3.9 µg/mL (≈ 4.99 to 9.99 µM) in data set [3] (setting [9]); 3.9 µg/mL (≈ 9.99 µM) in data set [3]. Further, the values for the minimal inhibitory concentration (MIC) in data set [4] (setting [10]), in data set [5] (setting [11]) and in data set [5] were > 31.3 µg/mL, 1.95 to 3.9 µg/mL (≈ 4.99 to 9.99 µM) and 1.95 µg/mL (≈ 4.99 µM), respectively.

For the compound `Fc1ccc(N/N=C/c2ccc(-c3cccc(/C=N/Nc4ccc(F)cc4F)c3)cc2)c(F)c1` [Compound 20a], the MIC was 7.8 µg/mL (≈ 16.9 µM) in data set [1] (setting [7]); 31.3 µg/mL (≈ 67.7 µM) in data set [2] (setting [8]); 7.8 µg/mL (≈ 16.9 µM) in data set [3] (setting [9]); 31.3 µg/mL (≈ 67.7 µM) in data set [4] (setting [10]); 1.95 to 3.9 µg/mL (≈ 4.22 to 8.43 µM) in data set [5] (setting [11]); 3.9 µg/mL (≈ 8.43 µM) in data set [5]. Moreover, the “toxicity (in words)” value in data set [6] (A549 at 15.5 μg/mL) was “no toxicity”.

Take `Fc1ccc(N/N=C/c2ccc(-c3cccc(/C=N/Nc4ccc(F)cc4)c3)cc2)cc1` [Compound 17a]: the minimal inhibitory concentration (MIC) is 1.95 to 3.9 µg/mL (≈ 4.57 to 9.14 µM) in data set [1] (setting [7]); 3.9 µg/mL (≈ 9.14 µM) in data set [1]; > 31.3 µg/mL in data set [2] (setting [8]); 15.6 µg/mL (≈ 36.6 µM) in data set [3] (setting [9]); 31.3 µg/mL (≈ 73.4 µM) in data set [4] (setting [10]); 1.95 to 3.9 µg/mL (≈ 4.57 to 9.14 µM) in data set [5] (setting [11]). Also, in data set [5], the MIC was 1.59 to 3.9 µg/mL. The “toxicity (in words)” value in data set [6] (setting [12]) is given as “generally non-toxic”.

As for `Fc1cccc(N/N=C/c2ccc(-c3cccc(/C=N/Nc4cccc(F)c4)c3)cc2)c1` [Compound 12a], the minimum inhibitory concentration (MIC) in data set [1] (setting [7]) is 7.8 to 15.6 µg/mL (≈ 18.3 to 36.6 µM); in data set [1], 7.8 µg/mL (≈ 18.3 µM); in data set [2] (setting [8]), > 31.3 µg/mL; in data set [3] (setting [9]) it was 1.95 to 3.9 µg/mL (≈ 4.57 to 9.14 µM); in data set [3], 3.9 µg/mL (≈ 9.14 µM); in data set [4] (setting [10]), 31.3 µg/mL (≈ 73.4 µM). In addition, the values for the MIC in data set [5] (setting [11]) and in data set [5] were 1.95 to 3.9 µg/mL (≈ 4.57 to 9.14 µM) and 1.95 µg/mL (≈ 4.57 µM), respectively. For the same compound, in data set [6] (A549 at 15.5 μg/mL), the “toxicity (in words)” value is reported as “no toxicity”.

In the case of `Fc1ccc(N/N=C/c2ccc(-c3ccc(/C=N/Nc4ccc(F)cc4)cc3)cc2)cc1` [Compound 17b], the minimal inhibitory concentration (MIC) in data set [1] (setting [7]) is 7.8 to 15.6 µg/mL (≈ 18.3 to 36.6 µM); in data set [1], 7.8 µg/mL (≈ 18.3 µM); in data set [2] (setting [8]), > 31.3 µg/mL; in data set [3] (setting [9]), 7.8 to 15.6 µg/mL (≈ 18.3 to 36.6 µM); in data set [3], 7.8 µg/mL (≈ 18.3 µM); in data set [4] (setting [10]), 31.3 µg/mL (≈ 73.4 µM). For the same compound, the MIC was 7.8 to 15.6 µg/mL (≈ 18.3 to 36.6 µM) in data set [5] (setting [11]) and 7.8 µg/mL (≈ 18.3 µM) in data set [5].

Regarding `C/C(=N\Nc1ccc(F)cc1)c1ccc(-c2ccc(/C(C)=N/Nc3ccc(F)cc3)cc2)cc1` [Compound 17c, 4,4′-bis((E)-1-(2-(4-fluorophenyl)hydrazono)ethyl)-1,1′-biphenyl], the minimal inhibitory concentration (MIC) in data set [1] (setting [7]) is 7.8 µg/mL (≈ 17.2 µM); in data set [2] (setting [8]), > 31.3 µg/mL; in data set [3] (setting [9]), > 31.3 µg/mL; in data set [4] (setting [10]) it was 15.6 µg/mL (≈ 34.3 µM); in data set [5] (setting [11]), 1.95 to 3.9 µg/mL (≈ 4.29 to 8.58 µM); in data set [5], 1.95 µg/mL (≈ 4.29 µM). Besides, the “toxicity (in words)” value in data set [6] (A549 at 15.5 μg/mL) is “no toxicity”.
